In patent US20240342186A1, “PYRIDINE DERIVATIVES WITH N-LINKED CYCLIC SUBSTITUENTS AS cGAS INHIBITORS” (Boehringer Ingelheim International GmbH, priority 2021, published 2024):
Like-named read-outs stand apart in the source and are kept apart here.

Legend:
[1] = test system: cellular cGAS activity in dsDNA-stimulated human whole blood; assay: Human whole blood assay (hWB IC50): IFNα2α production after dsDNA transfection; format: cell-based; settings: inhibition of IFN induction in dsDNA-stimulated human whole blood
Outline: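 Citrated blood from healthy donors preincubated 60 min at room temperature with compound (top 10 µM, ~1:5 steps, 0.1% DMSO), then transfected with dsDNA/Fugene and incubated 22 h at 37 °C. Plasma IFNα2α measured by MSD immunoassay; IC50 from 4-parameter fit of % control (stimulated vs unstimulated).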

[2] = test system: cGAMP-stimulated THP1-Dual cells (pathway directly downstream of cGAS); assay: cGAMP stimulated counter cell assay: inhibition of IFN induction in cGAMP-stimulated THP1 cells (THP1(cGAMP) IC50); format: cell-based, human; settings: for IC50: Homo sapiens, THP1-Dual, read-out: THP1(cGAMP) IC50 (converted); for Ratio THP1(cGAMP) IC50 / THP1(vir) IC50: selectivity for cGAS inhibition
Outline: (§1)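 THP1-Dual cells with IRF-dependent Lucia luciferase reporter, stimulated by empty baculovirus (dsDNA delivery activating cGAS) or, for the counter assay, directly by cGAMP. 5000 cells/well, 8 concentrations from 10 μM top, 1% DMSO, 18 h at 37 °C; luminescence read, IC50 by 4-parameter logistic fit versus unstimulated low control.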

[3] = test system: cellular cGAS activity in baculovirus-stimulated THP1-Dual cells (IRF dependent Lucia luciferase reporter); assay: Human cGAS cell assay: inhibition of IFN induction in virus-stimulated THP1 cells (THP1(vir) IC50); format: cell-based; settings: Homo sapiens, THP1-Dual, read-out: THP1(vir) IC50
Outline: as §1

cGAS [4] = target: T1, cGAS (Homo sapiens (Human), UniProt Q8N884); assay: Human cGAS enzyme assay (hcGAS IC50, in vitro), cGAMP formation by RapidFire MS; format: biochemical; settings: biochemical (in vitro) cGAS inhibition;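 note: enzyme activated by 45 bp dsDNA with GTP and ATP (30 µM each), 60 min compound pre-incubation then 90 min reaction, cGAMP relative to cyclic-di-GMP internal standard, 8-point dilutions up to 10 µM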
cGAS [5] = target: T1, cGAS; settings: groups of page 44/45 of WO 2020/142729; read-out: biochemical (in vitro) IC50 group; cited from earlier work
[6] = inhibition of IFN induction in cGAMP-stimulated THP1 cells
[7] = inhibition of IFN induction in virus-stimulated THP1 cells

T1 sequence (Q8N884 whole entry): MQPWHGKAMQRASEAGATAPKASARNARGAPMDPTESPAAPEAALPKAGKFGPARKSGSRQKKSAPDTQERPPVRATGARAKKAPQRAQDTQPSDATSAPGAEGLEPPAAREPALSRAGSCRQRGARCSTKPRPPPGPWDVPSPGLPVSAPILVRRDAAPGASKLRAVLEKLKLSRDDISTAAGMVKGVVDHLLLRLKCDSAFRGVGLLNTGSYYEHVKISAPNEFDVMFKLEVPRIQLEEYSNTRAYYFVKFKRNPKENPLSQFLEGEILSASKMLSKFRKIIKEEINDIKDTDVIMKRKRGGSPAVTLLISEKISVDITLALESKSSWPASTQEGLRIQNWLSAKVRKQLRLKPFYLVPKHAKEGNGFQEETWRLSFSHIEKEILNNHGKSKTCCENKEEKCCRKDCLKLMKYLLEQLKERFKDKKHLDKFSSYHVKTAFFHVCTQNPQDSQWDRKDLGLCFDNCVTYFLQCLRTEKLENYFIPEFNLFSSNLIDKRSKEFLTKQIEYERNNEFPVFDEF

SMILES: C[C@@H]1N(c2cc(-c3cnn(C)n3)cnc2O[C@H]2C[C@@H](C(=O)O)N(c3nc(C(F)(F)F)nc4c3oc3ccccc34)C2)CCOC12COC2 [Example 7.05]
- IC50 [1]: 35 nM
- IC50 [2, 6]: 13200 nM
- Ratio THP1(cGAMP) IC50 / THP1(vir) IC50 [2]: 1292
- IC50 [3, 7]: 10 nM
- IC50 (cGAS [4]): 9 nM

SMILES: C[C@H]1COC[C@H](C)N1c1cc(Br)cnc1O[C@H]1C[C@@H](C(=O)O)N(c2nc(C(F)F)nc3c2oc2ccccc23)C1 [Example 1.26]
- IC50 [1]: 475 nM
- IC50 [2, 6]: 9930 nM
- Ratio THP1(cGAMP) IC50 / THP1(vir) IC50 [2]: 17
- IC50 [3, 7]: 583 nM
- IC50 (cGAS [4]): 10 nM

SMILES: C#Cc1cnc(O[C@H]2C[C@@H](C(=O)O)N(c3nc(C(C)(F)F)nc4c3oc3ccccc34)C2)c(N2CCOC3(COC3)[C@@H]2C)c1 [Example 1.14]
- IC50 [1]: 7 nM
- IC50 [2, 6]: > 16600 nM
- Ratio THP1(cGAMP) IC50 / THP1(vir) IC50 [2]: >2708
- IC50 [3, 7]: 6 nM
- IC50 (cGAS [4]): 3 nM

SMILES: CNc1cc(-c2cnc(O[C@H]3C[C@@H](C(=O)O)N(c4nc(C(F)(F)F)nc5c4oc4ccccc45)C3)c(N3CCOC4(COC4)[C@@H]3C)c2)ccn1 [Example 3.09]
- IC50 [1]: 8 nM
- IC50 [2, 6]: 4820 nM
- Ratio THP1(cGAMP) IC50 / THP1(vir) IC50 [2]: 585
- IC50 [3, 7]: 8 nM
- IC50 (cGAS [4]): 9 nM

SMILES: Cc1noc(C)c1-c1cnc(O[C@H]2C[C@@H](C(=O)O)N(c3nc(C(F)(F)F)nc4c3oc3ccccc34)C2)c(N2CCOC3(COC3)[C@@H]2C)c1 [Example 3.27]
- IC50 [1]: 1860 nM
- IC50 [2, 6]: 12500 nM
- Ratio THP1(cGAMP) IC50 / THP1(vir) IC50 [2]: 38
- IC50 [3, 7]: 326 nM
- IC50 (cGAS [4]): 21 nM

SMILES: Cc1nc(N2C[C@@H](Cc3nn[nH]n3)C[C@H]2C(=O)O)c2oc3ccccc3c2n1 [Example 25, reference compound]
- IC50 ([2]; cGAMP-stimulated THP1 cells, counter assay): > 17000 nM
- IC50 (cGAS [5]): < 100 nM
- IC50 ([3]; virus-stimulated THP1 cells): 17000 nM

SMILES: CSc1cc(-c2cnc(O[C@H]3C[C@@H](C(=O)O)N(c4nc(C(F)F)nc5c4oc4ccccc45)C3)c(N3CCOC4(COC4)[C@@H]3C)c2)ccn1 [Example 3.16, (2S,4S)-1-[4-(difluoromethyl)-8-oxa-3,5-diazatricyclo-[7.4.0.0^2.7]trideca-1(9),2(7),3,5,10,12-hexaen-6-yl]-4-({5-[(9S)-9-methyl-2,5-dioxa-8-azaspiro[3.5]nonan-8-yl]-2′-(methylsulfanyl)-[3,4′-bipyridin]-6-yl}oxy)-pyrrolidine-2-carboxylic acid]
- IC50 [1]: 38 nM
- IC50 [2, 6]: 11800 nM
- Ratio THP1(cGAMP) IC50 / THP1(vir) IC50 [2]: 629
- IC50 [3, 7]: 19 nM
- IC50 (cGAS [4]): 15 nM

SMILES: C[C@H]1COCCN1c1cc(Br)cnc1O[C@H]1C[C@@H](C(=O)O)N(c2nc(C(F)F)nc3c2oc2ccccc23)C1 [Example 1.28]
- IC50 [1]: 629 nM
- IC50 [2, 6]: > 16600 nM
- Ratio THP1(cGAMP) IC50 / THP1(vir) IC50 [2]: >33
- IC50 [3, 7]: 500 nM
- IC50 (cGAS [4]): 3 nM

SMILES: COc1cc(-c2cnc(O[C@H]3C[C@@H](C(=O)O)N(c4nc(C(F)(F)F)nc5c4oc4ccccc45)C3)c(N3CCOC4(COC4)[C@@H]3C)c2)c(F)cn1 [Example 3.25]
- IC50 [1]: 96 nM
- IC50 [2, 6]: 9710 nM
- Ratio THP1(cGAMP) IC50 / THP1(vir) IC50 [2]: 502
- IC50 [3, 7]: 19 nM
- IC50 (cGAS [4]): 9 nM
